Measured values published in patent publication US20240226049A1, “METHODS OF TREATMENT USING BEMPEDOIC ACID” (Esperion Therapeutics, Inc., priority 2023, published 2024).

Tests used:
[1] = tested on: statin-intolerant patients with or at high risk of CVD; type: in vivo
Description: CLEAR OUTCOMES (described in Example 1) was a randomized double-blind trial comparing orally administered bempedoic acid 180 mg once daily to placebo in statin-intolerant patients with or at high risk of CVD and an LDL-C ≥2.59 mmol/L. This prespecified analysis reports the time to event analysis of bempedoic acid versus placebo on the primary endpoint (MACE-4; composite of CV death, nonfatal MI, nonfatal stroke, or coronary revascularization) and key secondary end-point (MACE-3; death from cardiovascular causes, nonfatal myocardial infarction, nonfatal stroke) by baseline glycaemia status (diabetes, prediabetes, and normoglycaemia), and impact on HbA1c at 1 and 3 years and on NOD for subjects without diabetes at baseline.

[2] = tested on: primary prevention patients unable to tolerate recommended doses of statins; test: CLEAR OUTCOMES primary prevention subgroup (Example 2): effects on LDL cholesterol and hsCRP; type: in vivo, human
Description: The rationale, design and methods of the CLEAR Outcomes trial is described in Example 1. The trial was conducted at 1250 sites in 32 countries and designed by the Cleveland Clinic Coordinating Center for Clinical Research (C5Research) and an academic Executive Committee in collaboration with the sponsor. The protocol was approved by ethics committees at participating sites and all patients provided written informed consent before enrollment. A contract research organization collected the data which were transferred to C5Research at completion of the trial whose statisticians conducted the analyses described herein. An independent Data Monitoring Committee monitored the trial.
Primary prevention patients 18 to 85 years of age with an LDL cholesterol ≥100 mg/dL with clinical features placing them at high risk for a first cardiovascular event were eligible. Criteria for high cardiovascular risk included risk scores, such as the Reynolds Risk Score and the SCORE project (Ridker et al., Development and validation of improved algorithms for the assessment of global cardiovascular risk in women: the Reynolds Risk Score, JAMA. 2007 Feb. 14; 297(6):611-9; Ridker et al., C-reactive protein and parental history improve global cardiovascular risk prediction. The Reynolds Risk Score for men, Circulation. 2008; 118: 2243-2251; European Guidelines on CVD Prevention in Clinical Practice. 2016. Eur J Prev Cardiol. 2016 July; 23(11):NP1-NP96), a coronary artery calcium score >400 Agatston units (AU) or presence of either type 1 or 2 diabetes in women aged >65 years or men older than 60 years.
Investigators were responsible for assessing the patient for statin intolerance. Patients had to report statin intolerance due to an adverse effect that started or increased during statin therapy and resolved or improved after statin therapy was discontinued. Entry criteria required inability to tolerate 2 or more statins at any dose or 1 statin and unwillingness to attempt a second statin or advised by a physician not to attempt taking a second statin. Both the patient and site investigator were required to provide written confirmation that the patient was statin intolerant and aware of the benefits of statins to reduce the risk of cardiovascular events, including death, and acknowledge that many patients who are unable to tolerate a statin can tolerate a different statin or dose. Patients could be enrolled if they tolerated a very low average daily statin dose defined as rosuvastatin <5 mg, atorvastatin <10 mg, simvastatin <10 mg, lovastatin <20 mg, pravastatin <40 mg, fluvastatin <40 mg, or pitavastatin <2 mg. Other background lipid-lowering therapies were permitted, including ezetimibe, niacin, bile acid resins, fibrates, and/or proprotein convertase subtilisin kexin type 9 (PCSK9) inhibitors.
Eligible patients entered a 4-week run-in period during which patients were treated with single-blind placebo. If patients were intolerant to placebo treatment or if adherence was <80% by tablet count, they were not eligible for randomization. Patients who successfully completed the run-in period were randomly assigned in a 1:1 ratio to receive a 180 mg oral dose of bempedoic acid or matching placebo, administered daily. During the trial, LDL cholesterol and hsCRP results were masked. Beginning 6 months after randomization, the central laboratory notified the investigator, who remained blinded to treatment assignment, if the patient's LDL cholesterol level was ≥25% higher than baseline. Repeat testing was performed after the patient was counseled about diet and encouraged to take all medications as prescribed. The patient returned for a repeat fasting blood lipid profile to confirm whether the LDL cholesterol value exceeded the threshold criteria. If confirmed, the patient's treatment regimen for LDL cholesterol lowering could be adjusted, per standard of care and local practice. […]

[3] = baseline diabetes, median 3.4 year follow up
[4] = baseline normoglycaemia, p<0.0001
[5] = baseline normoglycemia, median 3.4 year follow up
[6] = baseline pre-diabetes, median 3.4 year follow up
[7] = baseline pre-diabetes, p<0.0001
[8] = diabetes, primary prevention CVD risk group
[9] = diabetes, secondary prevention CVD risk group
[10] = vs placebo, baseline normoglycemia
[11] = vs placebo, baseline pre-diabetes
[12] = vs placebo, diabetes, primary prevention
[13] = vs placebo, diabetes, secondary prevention
[14] = vs placebo, history of one or more cardiovascular events
[15] = vs placebo, no prior history of cardiovascular events
[16] = primary prevention subgroup, vs placebo
[17] = primary prevention, after 12 months treatment
[18] = primary prevention, baseline mean 142.2 mg/dL

CC(C)(CCCCCC(O)CCCCCC(C)(C)C(=O)O)C(=O)O [Bempedoic Acid, Bempedoic acid]
Time to First Adjudicated MACE-3, Diabetes, % of patients [1, 3]: 8.9% | Time to First Adjudicated MACE-3, Diabetes, patients with event/patients [1, 3]: 279/3144 | Time to First Adjudicated MACE-4, Diabetes, % of patients [1, 3]: 11.9% | Time to First Adjudicated MACE-4, Diabetes, patients with event/patients [1, 3]: 374/3144 | LDL-C reduction compared to placebo at month 6, patients with diabetes ([1]; baseline diabetes, p<0.0001): 21.2% | LDL-C reduction compared to placebo at month 6 in absolute terms, patients with diabetes ([1]; baseline diabetes, p<0.0001): 0.73 mmol/L | LDL-C reduction compared to placebo at month 6, patients with normoglycaemia [1, 4]: 22.0% | LDL-C reduction compared to placebo at month 6 in absolute terms, patients with normoglycaemia [1, 4]: 0.81 mmol/L | Time to First Adjudicated MACE-3, Normoglycemia, % of patients [1, 5]: 7.2% | Time to First Adjudicated MACE-3, Normoglycemia, patients with event/patients [1, 5]: 67/937 | Time to First Adjudicated MACE-4, Normoglycemia, % of patients [1, 5]: 10.1% | Time to First Adjudicated MACE-4, Normoglycemia, patients with event/patients [1, 5]: 95/937 | Time to First Adjudicated MACE-3, Pre-Diabetes, % of patients [1, 6]: 7.9% | Time to First Adjudicated MACE-3, Pre-Diabetes, patients with event/patients [1, 6]: 229/2911 | Time to First Adjudicated MACE-4, Pre-Diabetes, % of patients [1, 6]: 12.0% | Time to First Adjudicated MACE-4, Pre-Diabetes, patients with event/patients [1, 6]: 350/2911 | LDL-C reduction compared to placebo at month 6, patients with pre-diabetes [1, 7]: 20.7% | LDL-C reduction compared to placebo at month 6 in absolute terms, patients with pre-diabetes [1, 7]: 0.76 mmol/L | Time to First Adjudicated MACE-3, Diabetes, Primary Prevention, % of patients [1, 8]: 4.9% | Time to First Adjudicated MACE-3, Diabetes, Primary Prevention, patients with event/patients [1, 8]: 67/1369 | Time to First Adjudicated MACE-4, Diabetes, Primary Prevention, % of patients [1, 8]: 6.4% | Time to First Adjudicated MACE-4, Diabetes, Primary Prevention, patients with event/patients [1, 8]: 87/1369 | Time to First Adjudicated MACE-3, Diabetes, Secondary Prevention, % of patients [1, 9]: 11.9% | Time to First Adjudicated MACE-3, Diabetes, Secondary Prevention, patients with event/patients [1, 9]: 212/1775 | Time to First Adjudicated MACE-4, Diabetes, Secondary Prevention, % of patients [1, 9]: 16.2% | Time to First Adjudicated MACE-4, Diabetes, Secondary Prevention, patients with event/patients [1, 9]: 287/1775 | reduction in risk of MACE (CV death, non-fatal MI or non-fatal stroke), adult with diabetes ([1]; vs placebo, 180 mg oral daily): about 20% | reduction in risk of MACE (CV death, non-fatal MI, non-fatal stroke or coronary revascularization), adult with diabetes ([1]; vs placebo, 180 mg oral daily): about 17% | Time to First Adjudicated MACE-3, Diabetes, HR ([1]; vs placebo, baseline diabetes): 0.80 | Time to First Adjudicated MACE-4, Diabetes, HR ([1]; vs placebo, baseline diabetes): 0.83 | Time to First Adjudicated MACE-3, Normoglycemia, HR [1, 10]: 0.96 | Time to First Adjudicated MACE-4, Normoglycemia, HR [1, 10]: 0.84 | Time to First Adjudicated MACE-3, Pre-Diabetes, HR [1, 11]: 0.92 | Time to First Adjudicated MACE-4, Pre-Diabetes, HR [1, 11]: 0.94 | Time to First Adjudicated MACE-3, Diabetes, Primary Prevention, HR [1, 12]: 0.65 | Time to First Adjudicated MACE-4, Diabetes, Primary Prevention, HR [1, 12]: 0.70 | Time to First Adjudicated MACE-3, Diabetes, Secondary Prevention, HR [1, 13]: 0.86 | Time to First Adjudicated MACE-4, Diabetes, Secondary Prevention, HR [1, 13]: 0.87 | reduction in risk of MACE (CV death, non-fatal MI or non-fatal stroke), adult with diabetes at risk for a secondary MACE [1, 14]: at least 14% | reduction in risk of MACE (CV death, non-fatal MI, non-fatal stroke or coronary revascularization), adult with diabetes at risk for a secondary MACE [1, 14]: about 13% | reduction in risk of MACE (CV death, non-fatal MI or non-fatal stroke), adult with diabetes at risk for a primary MACE [1, 15]: about 35% | reduction in risk of MACE (CV death, non-fatal MI, non-fatal stroke or coronary revascularization), adult with diabetes at risk for a primary MACE [1, 15]: about 30% | time-averaged difference in LDL cholesterol over the course of the trial [2, 16]: 23.2 mg/dL | time-averaged difference in LDL cholesterol over the duration of the trial, percent [2, 16]: 16.3% | difference in hsCRP reduction compared with placebo [2, 17]: 0.56 mg/L | difference in hsCRP reduction compared with placebo, percent [2, 17]: 21.5% | LS mean difference in LDL cholesterol compared with placebo after 6 months, percent [2, 18]: 21.3% | LS mean reduction in LDL cholesterol compared with placebo after 6 months of treatment [2, 18]: 30.2 mg/dL | reduction of hsCRP after 12 months treatment ([2]; primary prevention, median baseline 2.4 mg/L, bempedoic acid group): 0.34 mg/L
